The source of these data is the supplement of paper PMC10307832.

What all share (experiment): relative viability (nuclei count vs DMSO), 5 days (fraction); higher = more cells survive
Compound in the test “Tipifarnib + Foretinib”: Cn1cncc1[C@@](N)(c1ccc(Cl)cc1)c1ccc2c(c1)c(-c1cccc(Cl)c1)cc(=O)n2C [Tipifarnib] + COc1cc2c(Oc3ccc(NC(=O)C4(C(=O)Nc5ccc(F)cc5)CC4)cc3F)ccnc2cc1OCCCN1CCOCC1 [Foretinib] (partner 0.25 µM)
In outline:
(§1)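 Lung cancer cell lines were seeded in 1536-well plates and dosed by pin tool the next day, with either a single drug or a fixed anchor-drug dose combined with five library-drug doses (not always all listed) spaced in √10 steps. Five days later, one step fixed the cells and stained their nuclei (final 0.05% Triton X-100, 1% formaldehyde, 1 ug/ml Hoechst), and nuclei were counted on 4× images. Relative viability is the nuclei count in treated wells divided by the count in vehicle wells, and each value is the median of duplicate plates.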

Compound in the test “Tipifarnib + Alpelisib”: Cn1cncc1[C@@](N)(c1ccc(Cl)cc1)c1ccc2c(c1)c(-c1cccc(Cl)c1)cc(=O)n2C [Tipifarnib] + Cc1nc(NC(=O)N2CCC[C@H]2C(N)=O)sc1-c1ccnc(C(C)(C)C(F)(F)F)c1 [Alpelisib] (partner 2 µM)
In outline:
as §1

Compound in the test “Tipifarnib + Pemetrexed”: Cn1cncc1[C@@](N)(c1ccc(Cl)cc1)c1ccc2c(c1)c(-c1cccc(Cl)c1)cc(=O)n2C [Tipifarnib] + Nc1nc2[nH]cc(CCc3ccc(C(=O)N[C@@H](CCC(=O)O)C(=O)O)cc3)c2c(=O)[nH]1 [Pemetrexed] (partner 0.2 µM)
In outline:
as §1

Compound in the test “Tipifarnib + Olaparib”: Cn1cncc1[C@@](N)(c1ccc(Cl)cc1)c1ccc2c(c1)c(-c1cccc(Cl)c1)cc(=O)n2C [Tipifarnib] + O=C(c1cc(Cc2n[nH]c(=O)c3ccccc23)ccc1F)N1CCN(C(=O)C2CC2)CC1 [Olaparib] (partner 8 µM)
In outline: as §1

For NCI-H838, the relative viability with Tipifarnib + Foretinib (first compound 0.01 µM) is 1.01; with Tipifarnib + Foretinib (first compound 0.03162 µM) it was 0.805; with Tipifarnib + Foretinib (first compound 0.1 µM) it was 0.848; in the test with Tipifarnib + Foretinib (first compound 0.3162 µM) it was 0.695; with Tipifarnib + Foretinib (first compound 1 µM), 0.75; with Tipifarnib + Alpelisib (first compound 0.01 µM), 1.02. In addition, the relative viability with Tipifarnib + Alpelisib (first compound 0.03162 µM) worked out at 0.777; with Tipifarnib + Alpelisib (first compound 0.1 µM), 0.712; in the test with Tipifarnib + Alpelisib (first compound 0.3162 µM), 0.553; with Tipifarnib + Alpelisib (first compound 1 µM), 0.659; with Tipifarnib + Pemetrexed (first compound 0.01 µM), 0.259; in the test with Tipifarnib + Pemetrexed (first compound 0.03162 µM) it was 0.264. In addition, the relative viability is 0.293 with Tipifarnib + Pemetrexed (first compound 0.1 µM); 0.269 with Tipifarnib + Pemetrexed (first compound 0.3162 µM); 0.269 with Tipifarnib + Pemetrexed (first compound 1 µM); 0.741 with Tipifarnib + Olaparib (first compound 0.01 µM); 0.675 with Tipifarnib + Olaparib (first compound 0.03162 µM); 0.683 with Tipifarnib + Olaparib (first compound 0.1 µM). Besides, the values for the relative viability with Tipifarnib + Olaparib (first compound 0.3162 µM) and with Tipifarnib + Olaparib (first compound 1 µM) were 0.626 and 0.617, respectively.

With NCI-H1437, the relative viability with Tipifarnib + Foretinib (first compound 0.01 µM) was 1.32; with Tipifarnib + Foretinib (first compound 0.03162 µM), 1.29; with Tipifarnib + Foretinib (first compound 0.1 µM), 1.38; in the test with Tipifarnib + Foretinib (first compound 0.3162 µM), 0.955; with Tipifarnib + Foretinib (first compound 1 µM), 1.29; with Tipifarnib + Alpelisib (first compound 0.01 µM) it was 1.02. The relative viability in the test with Tipifarnib + Alpelisib (first compound 0.03162 µM) is 1.02; in the test with Tipifarnib + Alpelisib (first compound 0.1 µM), 0.931; in the test with Tipifarnib + Alpelisib (first compound 0.3162 µM) it was 0.76; with Tipifarnib + Alpelisib (first compound 1 µM), 0.688; with Tipifarnib + Pemetrexed (first compound 0.01 µM), 0.32; with Tipifarnib + Pemetrexed (first compound 0.03162 µM), 0.344. The relative viability with Tipifarnib + Pemetrexed (first compound 0.1 µM) is 0.322; with Tipifarnib + Pemetrexed (first compound 0.3162 µM) it was 0.285; with Tipifarnib + Pemetrexed (first compound 1 µM), 0.297; with Tipifarnib + Olaparib (first compound 0.01 µM), 0.656; in the test with Tipifarnib + Olaparib (first compound 0.03162 µM), 0.638; in the test with Tipifarnib + Olaparib (first compound 0.1 µM), 0.643. Further, the relative viability turned out to be 0.585 with Tipifarnib + Olaparib (first compound 0.3162 µM) and 0.608 in the test with Tipifarnib + Olaparib (first compound 1 µM).

Regarding NCI-H2170, the relative viability in the test with Tipifarnib + Foretinib (first compound 0.01 µM) came out at 1.03; with Tipifarnib + Foretinib (first compound 0.03162 µM), 1.06; in the test with Tipifarnib + Foretinib (first compound 0.1 µM), 1.01; with Tipifarnib + Foretinib (first compound 0.3162 µM) it was 0.99; with Tipifarnib + Foretinib (first compound 1 µM) it was 0.896; with Tipifarnib + Alpelisib (first compound 0.01 µM), 0.839. Also, the relative viability with Tipifarnib + Alpelisib (first compound 0.03162 µM) came to 0.818; in the test with Tipifarnib + Alpelisib (first compound 0.1 µM) it was 0.74; in the test with Tipifarnib + Alpelisib (first compound 0.3162 µM), 0.671; with Tipifarnib + Alpelisib (first compound 1 µM), 0.699; with Tipifarnib + Pemetrexed (first compound 0.01 µM), 0.257; with Tipifarnib + Pemetrexed (first compound 0.03162 µM) it was 0.291. The relative viability with Tipifarnib + Pemetrexed (first compound 0.1 µM) was determined as 0.269; with Tipifarnib + Pemetrexed (first compound 0.3162 µM), 0.243; with Tipifarnib + Pemetrexed (first compound 1 µM), 0.242; with Tipifarnib + Olaparib (first compound 0.01 µM), 0.687; with Tipifarnib + Olaparib (first compound 0.03162 µM), 0.582; with Tipifarnib + Olaparib (first compound 0.1 µM), 0.536. Moreover, the relative viability with Tipifarnib + Olaparib (first compound 0.3162 µM) came to 0.47; with Tipifarnib + Olaparib (first compound 1 µM), 0.474.

LCLC-103H: the relative viability amounted to 0.865 with Tipifarnib + Foretinib (first compound 0.01 µM); 0.869 with Tipifarnib + Foretinib (first compound 0.03162 µM); 0.59 with Tipifarnib + Foretinib (first compound 0.1 µM); 0.548 in the test with Tipifarnib + Foretinib (first compound 0.3162 µM); 0.418 with Tipifarnib + Foretinib (first compound 1 µM); 0.949 in the test with Tipifarnib + Alpelisib (first compound 0.01 µM). Further, the relative viability is 0.964 in the test with Tipifarnib + Alpelisib (first compound 0.03162 µM); 0.924 in the test with Tipifarnib + Alpelisib (first compound 0.1 µM); 0.792 with Tipifarnib + Alpelisib (first compound 0.3162 µM); 0.768 with Tipifarnib + Alpelisib (first compound 1 µM); 0.517 in the test with Tipifarnib + Pemetrexed (first compound 0.01 µM); 0.45 with Tipifarnib + Pemetrexed (first compound 0.03162 µM). For the same cell line, the relative viability with Tipifarnib + Pemetrexed (first compound 0.1 µM) is 0.49; with Tipifarnib + Pemetrexed (first compound 0.3162 µM) it was 0.49; with Tipifarnib + Pemetrexed (first compound 1 µM), 0.507; with Tipifarnib + Olaparib (first compound 0.01 µM), 0.81; with Tipifarnib + Olaparib (first compound 0.03162 µM), 0.759; with Tipifarnib + Olaparib (first compound 0.1 µM), 0.785. In addition, the relative viability in the test with Tipifarnib + Olaparib (first compound 0.3162 µM) stood at 0.708; with Tipifarnib + Olaparib (first compound 1 µM), 0.739.

For the cell line NCI-H441, the relative viability came to 0.955 with Tipifarnib + Foretinib (first compound 0.01 µM); 0.699 with Tipifarnib + Foretinib (first compound 0.03162 µM); 0.73 in the test with Tipifarnib + Foretinib (first compound 0.1 µM); 0.72 in the test with Tipifarnib + Foretinib (first compound 0.3162 µM); 0.594 in the test with Tipifarnib + Foretinib (first compound 1 µM); 0.712 with Tipifarnib + Alpelisib (first compound 0.01 µM). The relative viability with Tipifarnib + Alpelisib (first compound 0.03162 µM) was 1.06; with Tipifarnib + Alpelisib (first compound 0.1 µM), 0.54; with Tipifarnib + Alpelisib (first compound 0.3162 µM) it was 0.307; with Tipifarnib + Alpelisib (first compound 1 µM) it was 0.379; with Tipifarnib + Pemetrexed (first compound 0.01 µM), 0.269; with Tipifarnib + Pemetrexed (first compound 0.03162 µM), 0.286. Also, the relative viability with Tipifarnib + Pemetrexed (first compound 0.1 µM) is 0.294; in the test with Tipifarnib + Pemetrexed (first compound 0.3162 µM) it was 0.307; in the test with Tipifarnib + Pemetrexed (first compound 1 µM), 0.254; with Tipifarnib + Olaparib (first compound 0.01 µM), 0.651; with Tipifarnib + Olaparib (first compound 0.03162 µM), 0.39; in the test with Tipifarnib + Olaparib (first compound 0.1 µM), 0.523. The relative viability in the test with Tipifarnib + Olaparib (first compound 0.3162 µM) came out at 0.306; with Tipifarnib + Olaparib (first compound 1 µM) it was 0.277.

On to SK-LU-1, for which the relative viability amounted to 0.877 with Tipifarnib + Foretinib (first compound 0.01 µM); 0.723 in the test with Tipifarnib + Foretinib (first compound 0.03162 µM); 0.542 with Tipifarnib + Foretinib (first compound 0.1 µM); 0.481 in the test with Tipifarnib + Foretinib (first compound 0.3162 µM); 0.477 with Tipifarnib + Foretinib (first compound 1 µM); 1.06 with Tipifarnib + Alpelisib (first compound 0.01 µM). Moreover, the relative viability in the test with Tipifarnib + Alpelisib (first compound 0.03162 µM) was determined as 0.655; in the test with Tipifarnib + Alpelisib (first compound 0.1 µM), 0.528; with Tipifarnib + Alpelisib (first compound 0.3162 µM) it was 0.49; with Tipifarnib + Alpelisib (first compound 1 µM) it was 0.516; in the test with Tipifarnib + Pemetrexed (first compound 0.01 µM), 0.961; with Tipifarnib + Pemetrexed (first compound 0.03162 µM), 0.931. Further, the relative viability came out at 0.723 with Tipifarnib + Pemetrexed (first compound 0.1 µM); 0.63 with Tipifarnib + Pemetrexed (first compound 0.3162 µM); 0.5 with Tipifarnib + Pemetrexed (first compound 1 µM); 0.527 with Tipifarnib + Olaparib (first compound 0.01 µM); 0.419 with Tipifarnib + Olaparib (first compound 0.03162 µM); 0.525 with Tipifarnib + Olaparib (first compound 0.1 µM). Further, the relative viability worked out at 0.395 in the test with Tipifarnib + Olaparib (first compound 0.3162 µM) and 0.292 with Tipifarnib + Olaparib (first compound 1 µM).
